Data reported in ChEMBL document CHEMBL3297738, “Anmindenols A and B, inducible nitric oxide synthase inhibitors from a marine-derived Streptomyces sp” (J Nat Prod, 2014).
The source made the active and inactive calls. No cut-off for these calls is given here.

Tests used:
Type in all cases: functional, cell-based
PANC-1 = experiment: Cytotoxicity against human PANC1 cells up to 100 uM
A498 = experiment: Cytotoxicity against human A498 cells up to 100 uM
MiaPaCa = experiment: Cytotoxicity against human MiaPaCa cells up to 100 uM
RAW264.7 = experiment: Inhibition of LPS-induced nitric oxide production in mouse RAW264.7 cells after 20 hrs by Griess assay; conditions: RAW264.7, 20 h

SMILES	Activity (PANC-1)	Activity (A498)	Activity (MiaPaCa)	IC50 (RAW264.7)
Cc1ccc2c(c1)/C(=C/C(C)C)C[C@]2(O)CO	inactive	inactive	inactive	19 µM
Cc1ccc2c(c1)/C(=C/C(C)C)C=C2CO	inactive	inactive	inactive	23 µM
